Results: patent publication US9580430B2, “9H-pyrimido[4,5-B]indoles and related analogs as BET bromodomain inhibitors” (THE REGENTS OF THE UNIVERSITY OF MICHIGAN, priority 2014, dated 2017)

How the values were obtained:
MDA-MB-436 = test: Cell growth inhibition, MDA-MB-436 breast cancer cells (WST-8); format: cell-based; settings: Homo sapiens, MDA-MB-436, 96 h; 4 days; read-out: IC50 (nM) MDA-MB-436 Cell Line (WST assay)
Outline: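 IC50 was computed from WST-8-based cell counting in MDA-MB-436 cells, with absorbance read at 450 nm.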

MOLM-13 = test: Cell growth inhibition, MOLM-13 leukemia cells (CellTiter-Glo); format: cell-based; settings: Homo sapiens, MOLM-13, 96 h; 4 days; read-out: IC50 (nM) MOLM-13 Cell Line (CellTiter-Glo assay)
Outline: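 MOLM-13 leukemia cells treated with compounds; viability read by CellTiter-Glo luminescence after 10-20 min reagent incubation at room temperature. IC50 derived from luminescent signal.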

recombinant BRD4 BD1 = biological target: T1, recombinant BRD4 BD1 (Homo sapiens, UniProt O60885); test: Competitive fluorescence-polarization (FP) binding assay, BRD4 BD1; settings: competitive FP assay; protein 10 nM, probe […]; read-out: IC50 (nM) BRD4 BD1; also: probe 1.5 nM
T1 construct: for recombinant BRD4 BD1 and BRD4 BD2 proteins
Outline: (§1)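 FP competition with FAM-labelled probe (ZBA248 or BRD-1F) against preincubated protein/probe complex; BD1 at 10 nM and BD2 at 6 nM final, in 100 mM potassium phosphate pH 6.5, 0.01% Triton X-100. 30 min, room temperature. IC50 by nonlinear regression; Ki also derived, using probe Kd from protein saturation.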

recombinant BRD4 BD2 = biological target: T2, recombinant BRD4 BD2 (Homo sapiens, UniProt O60885); test: Competitive fluorescence-polarization (FP) binding assay, BRD4 BD2; settings: competitive FP assay; protein 6 nM, probe […]; read-out: IC50 (nM) BRD4 BD2; also: probe 1.5 nM
T2 construct: for recombinant BRD4 BD1 and BRD4 BD2 proteins
Outline: as §1

Row | SMILES | IC50 (MDA-MB-436) [nM] | IC50 (MOLM-13) [nM] | IC50 (recombinant BRD4 BD1) [nM] | IC50 (recombinant BRD4 BD2) [nM]
1 | COc1cc2c(cc1-c1c(C)noc1C)[nH]c1nc(C)nc(Nc3cccc4c3CCO4)c12 [Cpd. No. 234, N-(2,3-dihydrobenzofuran-4-yl)-7-(3,5-dimethylisoxazol-4-yl)-6-methoxy-2-methyl-9H-pyrimido[4,5-b]indol-4-amine] | 139 | 34 | 25 | 25
2 | CCc1cccc(Nc2nc(C)nc3[nH]c4cc(-c5c(C)noc5C)c(OC)cc4c23)c1 [Cpd. No. 216, 7-(3,5-dimethylisoxazol-4-yl)-N-(3-ethylphenyl)-6-methoxy-2-methyl-9H-pyrimido[4,5-b]indol-4-amine] | 292 | 220 | 19 | 35
3 | COc1cc2c(cc1-c1c(C)noc1C)[nH]c1nc(C)nc(Nc3c[nH]c4ncccc34)c12 [Cpd. No. 102, 7-(3,5-dimethylisoxazol-4-yl)-6-methoxy-2-methyl-N-(1H-pyrrolo[2,3-b]pyridin-3-yl)-9H-pyrimido[4,5-b]indol-4-amine] | 363 | 510 | 18 | 17
4 | COc1cc2c(cc1-c1c(C)noc1C)[nH]c1nc(C)nc(Nc3cccc(C)n3)c12 [Cpd. No. 111, 7-(3,5-dimethylisoxazol-4-yl)-6-methoxy-2-methyl-N-(6-methylpyridin-2-yl)-9H-pyrimido[4,5-b]indol-4-amine] | 1100 | 7 | 312 | 218
5 | CCc1nn(C)c(CC)c1Nc1nc(C)nc2[nH]c3cc(-c4c(C)noc4C)c(OC)cc3c12 [Cpd. No. 240, N-(3,5-diethyl-1-methyl-1H-pyrazol-4-yl)-7-(3,5-dimethylisoxazol-4-yl)-6-methoxy-2-methyl-9H-pyrimido[4,5-b]indol-4-amine] | 46 | 20 | 13 | 20
6 | COc1cc2c(cc1-c1c(C)noc1C)[nH]c1nc(C)nc(Nc3scnc3C(C)(C)C)c12 [Cpd. No. 33, 4-(tert-butyl)-N-(7-(3,5-dimethylisoxazol-4-yl)-6-methoxy-2-methyl-9H-pyrimido[4,5-b]indol-4-yl)thiazol-5-amine] | 303 | 2420 | 24.5 | 21.5
7 | COc1cc2c(cc1-c1c(C)noc1C)[nH]c1nc(C)nc(Nc3cc(C4CC4)nn3C(C)C)c12 [Cpd. No. 149, N-(3-Cyclopropyl-1-isopropyl-1H-pyrazol-5-yl)-7-(3,5-dimethylisoxazol-4-yl)-6-methoxy-2-methyl-9H-pyrimido[4,5-b]indol-4-amine] | 14.2 | 7.2 | 6.8 | 5.4
8 | COc1cc2c(cc1-c1c(C)noc1C)[nH]c1nc(C)nc(Nc3cc(C4CCC4)nn3C)c12 [Cpd. No. 136, N-(3-Cyclobutyl-1-methyl-1H-pyrazol-5-yl)-7-(3,5-dimethylisoxazol-4-yl)-6-methoxy-2-methyl-9H-pyrimido[4,5-b]indol-4-amine] | 63.2 | 26.6 | 10.5 | 6.9
9 | COc1cc2c(cc1-c1c(C)noc1C)[nH]c1nc(C)nc(Nc3ccccc3C(C)C)c12 [Cpd. No. 243, 7-(3,5-dimethylisoxazol-4-yl)-N-(2-isopropylphenyl)-6-methoxy-2-methyl-9H-pyrimido[4,5-b]indol-4-amine] | 162 | 61 | 15 | 14
10 | COc1cc2c(cc1-c1c(C)noc1C)[nH]c1nc(C)nc(Nc3c(-c4ccccc4)nn(C(C)C)c3C)c12 [Cpd. No. 4, 7-(3,5-Dimethylisoxazol-4-yl)-N-(1-isopropyl-5-methyl-3-phenyl-1H-pyrazol-4-yl)-6-methoxy-2-methyl-9H-pyrimido[4,5-b]indol-4-amine] | 249 | 69.3 | 52.9 | 21.7
11 | CCn1cc(Nc2nc(C)nc3[nH]c4cc(-c5c(C)noc5C)c(OC)cc4c23)c(C(C)C)n1 [Cpd. No. 199, 7-(3,5-dimethylisoxazol-4-yl)-N-(1-ethyl-3-isopropyl-1H-pyrazol-4-yl)-6-methoxy-2-methyl-9H-pyrimido[4,5-b]indol-4-amine] | 67.9 | 30.5 | 13.3 | 14.5
12 | COc1cc2c(cc1-c1c(C)noc1C)[nH]c1nc(C)nc(Nc3nn(C)c4c(F)cccc34)c12 [Cpd. No. 129, 7-(3,5-Dimethylisoxazol-4-yl)-N-(7-fluoro-1-methyl-1H-indazol-3-yl)-6-methoxy-2-methyl-9H-pyrimido[4,5-b]indol-4-amine] | 201 | 144 | 105 | 202
13 | COc1cc2c(cc1-c1c(C)noc1C)[nH]c1nc(C)nc(Nc3cccc4c3ccn4C)c12 [Cpd. No. 236, 7-(3,5-dimethylisoxazol-4-yl)-6-methoxy-2-methyl-N-(1-methyl-1H-indol-4-yl)-9H-pyrimido[4,5-b]indol-4-amine] | 117 | 49 | 14 | 59
14 | COc1cc2c(cc1-c1c(C)noc1C)[nH]c1nc(C)nc(Nc3cccc4nc(C)ccc34)c12 [Cpd. No. 228, 7-(3,5-dimethylisoxazol-4-yl)-6-methoxy-2-methyl-N-(2-methylquinolin-5-yl)-9H-pyrimido[4,5-b]indol-4-amine] | 129 | 87 | 25 | 26

Next, values leading:

Row | IC50 (MDA-MB-436) [nM] | IC50 (MOLM-13) [nM] | IC50 (recombinant BRD4 BD1) [nM] | IC50 (recombinant BRD4 BD2) [nM] | SMILES
15 | 52.5 | 32.7 | 10 | 7.5 | COc1cc2c(cc1-c1c(C)noc1C)[nH]c1nc(C)nc(Nc3c(C)cnn3C(C)(C)C)c12 [Cpd. No. 196, N-(1-(tert-butyl)-4-methyl-1H-pyrazol-5-yl)-7-(3,5-dimethylisoxazol-4-yl)-6-methoxy-2-methyl-9H-pyrimido[4,5-b]indol-4-amine]
16 | 40 | 25.4 | 10.9 | 5.9 | COc1cc2c(cc1-c1c(C)noc1C)[nH]c1nc(C)nc(Nc3cn(C)nc3C3CCC3)c12 [Cpd. No. 200, N-(3-cyclobutyl-1-methyl-1H-pyrazol-4-yl)-7-(3,5-dimethylisoxazol-4-yl)-6-methoxy-2-methyl-9H-pyrimido[4,5-b]indol-4-amine]
17 | 209 | 189 | 49 | 57 | COc1cc2c(cc1-c1c(C)noc1C)[nH]c1nc(C)nc(Nc3cccc4cnccc34)c12 [Cpd. No. 221, 7-(3,5-dimethylisoxazol-4-yl)-N-(isoquinolin-5-yl)-6-methoxy-2-methyl-9H-pyrimido[4,5-b]indol-4-amine]
18 | 323 | 109 | 200 | 613 | COc1ccc2c(Nc3nc(C)nc4[nH]c5cc(-c6c(C)noc6C)c(OC)cc5c34)nn(C)c2c1 [Cpd. No. 19, 7-(3,5-Dimethylisoxazol-4-yl)-6-methoxy-N-(6-methoxy-1-methyl-1H-indazol-3-yl)-2-methyl-9H-pyrimido[4,5-b]indol-4-amine]
19 | 142 | 56.3 | 365 | 198 | COc1cc2c(cc1-c1c(C)noc1C)[nH]c1nc(C)nc(Nc3cc(C)nn3-c3cccc(Cl)c3)c12 [Cpd. No. 7, N-(1-(3-Chlorophenyl)-3-methyl-1H-pyrazol-5-yl)-7-(3,5-dimethylisoxazol-4-yl)-6-methoxy-2-methyl-9H-pyrimido[4,5-b]indol-4-amine]
20 | 51 | 28.4 | 16.7 | 82.3 | COc1cc2c(cc1-c1c(C)noc1C)[nH]c1ncnc(Nc3nn(C)c4ccccc34)c12 [Cpd. No. 17, 7-(3,5-Dimethylisoxazol-4-yl)-6-methoxy-N-(1-methyl-1H-indazol-3-yl)-9H-pyrimido[4,5-b]indol-4-amine]
21 | 198 | 121 | 31.7 | 25.1 | CCn1nccc1Nc1nc(C)nc2[nH]c3cc(-c4c(C)noc4C)c(OC)cc3c12 [Cpd. No. 173, 7-(3,5-dimethylisoxazol-4-yl)-N-(1-ethyl-1H-pyrazol-5-yl)-6-methoxy-2-methyl-9H-pyrimido[4,5-b]indol-4-amine]
22 | 7.3 | 1.1 | 4.5 | 0.5 | CCn1nc2c(c1Nc1nc(C)nc3[nH]c4cc(-c5c(C)noc5C)c(OC)cc4c13)CCCC2 [Cpd. No. 142, 7-(3,5-Dimethylisoxazol-4-yl)-N-(2-ethyl-4,5,6,7-tetrahydro-2H-indazol-3-yl)-6-methoxy-2-methyl-9H-pyrimido[4,5-b]indol-4-amine]
23 | 128 | 32 | 40.2 | 30.5 | COc1cc2c(cc1-c1c(C)noc1C)[nH]c1nc(C)nc(Nc3cnn4c3CCC4)c12 [Cpd. No. 134, N-(5,6-Dihydro-4H-pyrrolo[1,2-b]pyrazol-3-yl)-7-(3,5-dimethylisoxazol-4-yl)-6-methoxy-2-methyl-9H-pyrimido[4,5-b]indol-4-amine]
